# Assay results from patent US9932329B2, “Benzimidazole derivatives as RLK and ITK inhibitors” (Principia Biopharma, Inc., priority 2014, dated 2018).
# Structures can show the parent of a compound that is named as a salt. Where two headings read alike, the source gives them in different places.
# How the values were obtained:
# RLK = RLK (Homo sapiens (Human), UniProt P42681); assay: Inhibition of RLK enzymatic activity, Caliper assay; assay type: biochemical
# NFAT-bla Jurkat cells = assay: cells; conditions: Homo sapiens, read-out: TCR-induced NFAT IC50
# human PBMCs = assay: cells; conditions: PBMC, read-out: CD3/CD28-induced IL-2 IC50
# [1] = test system: cell types that do not express ITK and RLK; assay: BioMap cell screening panel, cell types that do not express ITK and RLK; assay type: cell-based; conditions: data not shown
# From the text: (§1) FIG. 1 depicts the inhibition of intracellular expression of IL-17 in the presence of an ITK/RLK inhibitor (Tool Compound A) by a population of T-cells activated by anti-CD3/anti-CD-28. FIG. 2 depicts results from a BioMap® cell screening panel (performed by BioSeek, Inc., South San Francisco, Calif.) is a set of cell-based assays used to probe the cellular potency and selectivity of inhibitory compounds. A variety of cell culture and co-culture systems are stimulated with a range of molecules. Biomarker readouts are pathway activities in the culture systems. The biomarker readouts measured in each system are indicated along the x-axis. […] Three concentrations of Compound A were tested for the ability to modulate the various readouts. […] The TH2 system consists of primary human umbilical vein endothelial cells co-cultured with 14-day TH2 polarized CD4 T-cell blasts stimulated with TCR and IL-2.
# murine Th17 cells = assay: Differentiation of murine Th17 cells from CD4+ cells of TCR transgenic mice; assay type: cell-based, mouse; conditions: for IC50: Mus musculus, 72 h
# Procedure: CD4+ cells from TCR transgenic mice (B10.A 5C.C7 TCR Tg (Rag-2^−/−)) were grown for three days in the presence of culture conditions that support the differentiation of the T cell population to Th17 cells (optimized concentrations of IL-6, TGF-β, IL-1β, IL-23, anti-mouse IL-2, anti-mouse IFN-γ, and anti-mouse IL-4 mAb). This was done in the presence of varying concentrations of Tool Compound A in the cell culture medium during the differentiation procedure. The cells were then activated with a combination of phorbol 12-myristate 13-acetate and ionomycin and the expression of the Th17 specific transcription factor RORγt and intracellular IL-17A was measured by flow cytometry.
# human Th17 cells = assay: Intracellular IL-17 expression by purified human Th17 cells after anti-CD3/anti-CD28 activation; assay type: cell-based; conditions: single dose of 500 nM, 1 h exposure, 12 h activation, FACS
# From the text: A population of T cells enhanced in Th17 cells was produced using the EasySep™ human Th17 enrichment kit from StemCell Technologies. […]
# [2] = test system: human PBMC and B cell co-culture; assay: IL-17A secretion in PBMC-B cell co-cultures (BioMap BT system); assay type: cell-based
# From the text: as §1
# (§2) Tool Compound A was tested in T cell co-cultures consisting of either a mixture of human primary peripheral blood mononuclear cells (PBMC) and B cells or human primary differentiated Th2 cells and human umbilical vein endothelial cells. The PBMC-B cell co-cultures were stimulated with TCR activators anti-CD3 and anti-CD28 and anti-IgM antibodies for 84 h to simulate B cell activation driven by T cell activation. Tool Compound A was tested at 10 μM, 1 μM, 100 nM and 10 nM. […]
# [3] = test system: human Th2 cell-HUVEC co-culture; assay: IL-17A secretion in primary Th2 cell-HUVEC co-cultures (BioMap TH2 system); assay type: cell-based; conditions: stimulated by TCR activation and interleukin-2
# From the text: as §1, §2
# [4] = ATP at Km (100 μM), 15 min pre-incubation, 3 h reaction
# Sequence of RLK (P42681 whole entry): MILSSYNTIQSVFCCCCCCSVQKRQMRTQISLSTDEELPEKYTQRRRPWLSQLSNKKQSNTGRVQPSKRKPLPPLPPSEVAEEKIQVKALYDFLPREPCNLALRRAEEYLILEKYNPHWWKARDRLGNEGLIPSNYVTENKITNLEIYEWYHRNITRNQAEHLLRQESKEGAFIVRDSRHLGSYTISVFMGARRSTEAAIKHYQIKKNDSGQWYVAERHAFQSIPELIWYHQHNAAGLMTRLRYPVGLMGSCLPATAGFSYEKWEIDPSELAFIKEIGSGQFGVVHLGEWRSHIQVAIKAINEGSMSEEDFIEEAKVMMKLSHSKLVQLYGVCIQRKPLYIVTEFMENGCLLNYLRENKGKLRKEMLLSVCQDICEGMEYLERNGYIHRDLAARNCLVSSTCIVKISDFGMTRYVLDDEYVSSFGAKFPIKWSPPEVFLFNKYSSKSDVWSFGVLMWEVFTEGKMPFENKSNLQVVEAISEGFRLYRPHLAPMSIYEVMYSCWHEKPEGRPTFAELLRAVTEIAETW
SMILES,IC50 (RLK; [4]),IC50 (NFAT-bla Jurkat cells),IC50 (human PBMCs),other results
"CC(C)(C)C=C(C#N)C(=O)N1CCC[C@@H]1Cn1c(NC(=O)c2ccc(-c3cnco3)s2)nc2cc(CO)ccc21 [Example 1, (R)-N-(1-((1-(2-cyano-4,4-dimethylpent-2-enoyl)pyrrolidin-2-yl)methyl)-5-(hydroxymethyl)-1H-benzo[d]imidazol-2-yl)-5-(oxazol-5-yl)thiophene-2-carboxamide]",1.2 nM,50 nM,71 nM,
"CC(C)(C)C=C(C#N)C(=O)N1CCC[C@@H]1Cn1c(NC(=O)c2ccc(-c3cnco3)s2)nc2cc(CNCC3CC3)ccc21 [Example 2, (R)-N-(1-((1-(2-cyano-4,4-dimethylpent-2-enoyl)pyrrolidin-2-yl)methyl)-5-(((cyclopropyl-methyl)-amino)methyl)-1H-benzo[d]imidazol-2-yl)-5-(oxazol-5-yl)thiophene-2-carboxamide formate]",,536 nM,81 nM,
"COCC(C)NCc1ccc2c(c1)nc(NC(=O)c1ccc(-c3cnco3)s1)n2C[C@H]1CCCN1C(=O)C(C#N)=CC(C)(C)C (stereo partly drawn) [Example 7, N-1-(((R)-1-(2-cyano-4,4-dimethylpent-2-enoyl)pyrrolidin-2-yl)methyl)-5-((((R)-1-methoxypropan-2-yl)amino)methyl)-1H-benzo[d]imidazol-2-yl)-5-(oxazol-5-yl)-thiophene-2-carboxamide formate]",2.1 nM,101 nM,109 nM,
"C=CC(=O)N1CCC[C@@H]1Cn1c(NC(=O)c2ccc(-c3cnco3)s2)nc2cc(CNCC3CC3)ccc21 [Example 9, (R)-N-(1-((1-acryloylpyrrolidin-2-yl)methyl)-5-(((cyclopropylmethyl)amino)methyl)-1H-benzo[d]imidazol-2-yl)-5-(oxazol-5-yl)thiophene-2-carboxamide]",0.3 nM,4 nM,4 nM,
"C=CC(=O)N1CCC[C@@H]1Cn1c(NC(=O)c2ccc(-c3cnco3)s2)nc2cc(CN[C@H](CO)C(C)(C)C)ccc21 [Example 10, N-(1-(((R)-1-acryloylpyrrolidin-2-yl)methyl)-5-((((S)-1-hydroxy-3,3-dimethylbutan-2-yl)-amino)methyl)-1H-benzo[d]imidazol-2-yl)-5-(oxazol-5-yl)thiophene-2-carboxamide]",0.2 nM,,,
"C=CC(=O)N1CCC[C@@H]1Cn1c(NC(=O)c2ccc(-c3cnco3)s2)nc2cc(CN[C@@H](CO)C(C)(C)C)ccc21 [Example 11, N-(1-(((R)-1-acryloylpyrrolidin-2-yl)methyl)-5-((((R)-1-hydroxy-3,3-dimethylbutan-2-yl)-amino)-methyl)-1H-benzo[d]imidazol-2-yl)-5-(oxazol-5-yl)thiophene-2-carboxamide]",0.5 nM,,,
"C=CC(=O)N1CCC[C@@H]1Cn1c(NC(=O)c2ccc(-c3cnco3)s2)nc2cc(CN[C@@H](C)CO)ccc21 [Example 12, N-(1-(((R)-1-acryloylpyrrolidin-2-yl)methyl)-5-((((S)-1-hydroxypropan-2-yl)amino)methyl)-1H-benzo[d]imidazol-2-yl)-5-(oxazol-5-yl)thiophene-2-carboxamide]",0.3 nM,5 nM,4 nM,
"C=CC(=O)N1CCC[C@@H]1Cn1c(NC(=O)c2ccc(-c3cnco3)s2)nc2cc(CN[C@H](C)CO)ccc21 [Example 13, N-(1-(((R)-1-acryloylpyrrolidin-2-yl)methyl)-5-((((R)-1-hydroxypropan-2-yl)amino)methyl)-1H-benzo[d]imidazol-2-yl)-5-(oxazol-5-yl)thiophene-2-carboxamide]",0.3 nM,,,
"C[C@H](NCc1ccc2c(c1)nc(NC(=O)c1ccc(-c3cnco3)s1)n2C[C@H]1CCCN1C(=O)C(C#N)=CC(C)(C)C)C(C)(C)C [Example 15, N-(1-(((R)-1-(2-cyano-4,4-dimethylpent-2-enoyl)pyrrolidin-2-yl)methyl)-5-((((S)-3,3-dimethyl-butan-2-yl)amino)methyl)-1H-benzo[d]imidazol-2-yl)-5-(oxazol-5-yl)thiophene-2-carboxamide]",1.2 nM,,,
C=CC(=O)N1CCC[C@@H]1Cn1c(NC(=O)c2ccc(C(F)F)s2)nc2cc(CN[C@@H](C)C(C)(C)C)ccc21 [PRN694],,,,Inhibitory activity in cell types that do not express ITK and RLK [1]: essentially no inhibitory activity
"C[C@H](NCc1ccc2c(c1)nc(NC(=O)c1ccc(C(F)F)s1)n2C[C@H]1CCCN1C(=O)C(C#N)=CC(C)(C)C)C(C)(C)C [Tool Compound A, N-(1-(((R)-1-(2-cyano-4,4-dimethylpent-2-enoyl)pyrrolidin-2-yl)methyl)-5-((((S)-3,3-dimethylbutan-2-yl)amino)methyl)-1H-benzo[d]imidazol-2-yl)-5-(difluoromethyl)thiophene-2-carboxamide]",,,,"IC50 (RLK): 1 nM; IC50 (murine Th17 cells; three days under Th17 conditions, PMA/ionomycin, flow cytometry, read-out: Midpoint of dose response - Th17: Intracellular cytokine expression (IL-17)): < 25 nM; IC50 (murine Th17 cells; three days under Th17 conditions, PMA/ionomycin, flow cytometry, read-out: Midpoint of dose response - Th17: Transcription factor expression (RORγt)): ~25 nM; IC50 (murine Th17 cells; three days under Th17 differentiation conditions, read-out: Midpoint of dose response - Th17: Proliferation): < 25 nM; Concentration that blocks expression of Th17 differentiation markers (RORγt and IL-17A) (murine Th17 cells; cultures polarizing murine T cells into Th17): ≤ 25 nM; TCR-induced intracellular expression of IL-17 (human Th17 cells): completely blocked; IL-17A secretion into culture supernatant ([2]; 10 μM, 1 μM, 100 nM and 10 nM, anti-CD3, anti-CD28 and anti-IgM for 84 h): inhibited in a dose dependent manner; Release of soluble proinflammatory cytokines IL17A, IL17F and TNFα by activated T cells ([2]; BioMap panel, three concentrations): inhibits release; IL-17A secretion [3]: inhibited IL-17A secretion in a dose dependent manner"
